Experimental data published in patent US6686444B2, “Osteopontin derived chemotactic peptides and methods of use” (Children's Medical Center Corporation, priority 1996, dated 2004).

B1: OPN(ct): the C-terminal half of OPN after thrombin cleavage (protein)
chain: SKSRSFQVSDEQYPDATDEDLTSHMKSGESKESLDVIPVAQLLSMPSDQDNNGKGSHESSQLDEPSLETHRLEHSKESQESADQSDVIDSQASSKASLEHQSHKFHSHKDKLVLDPKSKEDDRYLKFRISHELESSSSEVN

Key:
osteosarcoma cells = assay: Modified Boyden chamber chemotaxis of osteosarcoma cells; assay type: cell-based; conditions: for Chemotactic activity (in words): osteosarcoma cells
Experimental: Purified OPN (˜0.5 mg) was digested with trypsin (2% w/w) in 0.2 ml of 50 mM NH4HCO3, pH 8.0, for 20 hours at 37° C. before treatment of the reaction products with 50 μl of 100% H2O+0.1% trifluoroacidic acid (TFA) and resolution of the peptides by HPLC chromatography on C-18 column (25×0.46 cm). After injection the column was washed for 10 min, followed by linear gradient elution from 100% H2O+0.1% TFA to 60% CH3CN+0.55% TFA over 120 min, with a second gradient from 60% CH3CN to 80% CN3CN over 30 min at a flow rate of 0.5 ml/min. The absorbance at 219 nm was recorded continuously by an on-line chart recorder/integrator using Gilson HM Holochrome detector, and fractions of 0.5 ml were collected. Each peak was then tested for mediation of chemotaxis or for its ability to inhibit OPN mediated chemotaxis using the chemotactic assay described in Example 4 below. Furthermore, each peak was also tested for its ability to promote attachment of CD44^+ or αvβx cells.
Positive peaks from tryptic digest were sequenced by gas-phase automated sequenator. Chemotactic peptides corresponding to the positive sequences were synthesized and the resulting synthetic peptides were then tested for their ability to promote either chemotaxis or to inhibit the chemotaxis to OPN as described in Example 4. Chemical synthesis of peptides provides a convenient method to test the sequence specificity and minimal length of the chemotactic peptides.
In a modified Boyden chamber, both surfaces of polycarbonate filters (pore size, 8 μm) were coated with gelatin (100 μg/ml, overnight) before 1×10^3 osteosarcoma cells were added in 500 μl to the upper chamber and incubated at 37° C. in the presence or absence of chemotactic agents in the lower chamber. After two hours, the membranes were fixed in methanol and stained with hematoxilin/toluidine blue. Responding cells on the lower surface of the filter were counted microscopically and evaluated in triplicates. Random migration was assessed by counting the number of cells that migrated to the lower surface of the filter when excess chemotactic molecule was added to the upper chamber.

peritoneal exudate cells = assay: In vivo cellular migration into the peritoneum after intraperitoneal injection (peritoneal exudate, flow cytometry); set-up: species or system Mice
Experimental: Mice were injected intraperitoneally with varying dosages of K7 osteosarcoma-derived osteopontin. All injection volumes were 200 μl. Injections of vehicle alone (PBS) served as negative controls and vehicle plus 20 μg lipopolysaccharide (LPS) injections served as positive controls for elicitation of peritoneal exudates.
Mice were sacrificed by CO2-asphyxiation at varying times following injection. Immediately after sacrifice, peritoneal exudate was recovered by intraperitoneal injection and recovery of 10 mL PBS. The lavage procedure was performed twice on each mouse. Following this, red blood cells were lysed by hypotonic lysis with ACK lysis buffer (0.15 M NH4Cl, 1.0 mM KHCO3, 0.1 mM Na2EDTA, pH 7.4) for 5 minutes at room temperature, and the preparation was washed in DMEM, 5% FBS. Cells were resuspended in DMEM, 5% FBS for fluorescent antibody staining.
Each sample of cells to be analyzed for specific surface markers was suspended in DMEM, 5% FBS at a concentration of 0.2 to 1 million cells in 50 μl. Fluorescence-labeled antibodies were added at 1 μg/1×10^6 cells, and incubated with the cells for 30 minutes at 4° C. Samples were washed twice with 200 μl of PBS following antibody staining and fixed with 500 μl of 2% paraformaldehyde in PBS. Peritoneal exudate cells were analyzed by dual-color flow cytometry for expression of CD44 (PE), CD11b (Mac-1, FITC, macrophage marker), B220 (FITC, B-cell marker), and CD3 (FITC, T-cell marker). All antibodies were purchased from PharMingen and flow cytometric analysis was done using a Coulter EPICS flow cytometer. Controls for non-specific binding and single color controls were included.

[1] = Table 2, substance in lower chamber, upper chamber OPN
[2] = Table 2, substance in lower chamber, upper chamber PBS
[3] = Table 2, substance in lower chamber, upper chamber SP64
[4] = Table 2, substance in lower chamber, upper chamber peptide 51
[5] = Table 2, substance in upper chamber, lower chamber PBS
[6] = Table 3, substance in lower chamber, upper chamber Ab64
[7] = Table 3, substance in lower chamber, upper chamber OPN
[8] = Table 3, substance in lower chamber, upper chamber PBS
[9] = Table 3, substance in lower chamber, upper chamber peptide 51
[10] = Table 3, substance in upper chamber, lower chamber PBS
[11] = Table 4, substance in lower chamber, upper chamber OPN
[12] = Table 4, substance in lower chamber, upper chamber OPN(ct)
[13] = Table 4, substance in lower chamber, upper chamber OPN(nT)
[14] = Table 4, substance in lower chamber, upper chamber PBS, averages from at least three experiments
[15] = Table 4, substance in upper chamber, lower chamber PBS
[16] = 6 hours after intraperitoneal injection

Molecule | Responding cells on the lower surface of the filter (osteosarcoma cells; [1]) | Responding cells on the lower surface of the filter (osteosarcoma cells; [2]) | Responding cells on the lower surface of the filter (osteosarcoma cells; [3]) | Responding cells on the lower surface of the filter (osteosarcoma cells; [4]) | Responding cells on the lower surface of the filter (osteosarcoma cells; [5]) | Responding cells on the lower surface of the filter (osteosarcoma cells; [6]) | Responding cells on the lower surface of the filter (osteosarcoma cells; [7]) | Responding cells on the lower surface of the filter (osteosarcoma cells; [8]) | Responding cells on the lower surface of the filter (osteosarcoma cells; [9]) | Responding cells on the lower surface of the filter (osteosarcoma cells; [10]) | Responding cells on the lower surface of the filter (osteosarcoma cells; [11]) | Responding cells on the lower surface of the filter (osteosarcoma cells; [12]) | Responding cells on the lower surface of the filter (osteosarcoma cells; [13]) | Responding cells on the lower surface of the filter (osteosarcoma cells; [14]) | Responding cells on the lower surface of the filter (osteosarcoma cells; [15]) | Chemotactic activity (in words) (osteosarcoma cells) | other results
KFHSHKDKLVLDPKSK (OTHER INFORMATION: Osteopontin Derived Peptide) [SP64] | 74 | 117 | 66 | 40 | 4 | – | – | – | – | – | – | – | – | – | – | – | –
osteopontin [OPN] | 43 | 118 | 45 | 32 | 21 | 51 | 94 | 217 | 65 | 14 | 43 | 58 | 115 | 98 | 21 | chemotax toward | Dose of peak response of cellular infiltrate (peritoneal exudate cells; [16]): around 13 μg; Number of CD3+ and B220+ cells in the infiltrate (peritoneal exudate cells; [16]): only marginally elevated; Number of Mac-1+ cells in the infiltrate over basal levels (peritoneal exudate cells; [16]): increased fivefold; Cellular infiltrate in the peritoneum (in words) (peritoneal exudate cells; 6 hours after intraperitoneal injection, dose titration): dose dependent increase; Dose of peak CD44+ Mac1+ cell response (peritoneal exudate cells; intraperitoneal injection): around 7 μg; Peritoneal influx of cells (peritoneal exudate cells; intraperitoneal injection, mice): 1.16 million cells
VLDPK (OTHER INFORMATION: Osteopontin Derived Peptide) [peptide E] | – | – | – | – | – | – | – | – | – | – | – | – | – | – | – | retains some chemotactic activity | Chemotactic activity (in words) (osteosarcoma cells; listed as VLDPK): retains some chemotactic properties
LVLDPK (OTHER INFORMATION: Osteopontin derived peptide) [peptide 51, chemotactic tryptic peptide of osteopontin, also synthesized] | 88 | 128 | 47 | 51 | 9 | 62 | 187 | 243 | 109 | 8 | – | – | – | – | – | showed chemotactic properties | Competition with OPN for the migration of cells (osteosarcoma cells): competes with OPN; Responding cells on the lower surface of the filter (osteosarcoma cells; Table 1, substance in lower chamber, upper chamber PBS): 68; Responding cells on the lower surface of the filter (osteosarcoma cells; Table 1, substance in lower chamber, upper chamber peptide 49): 83; Responding cells on the lower surface of the filter (osteosarcoma cells; Table 1, substance in lower chamber, upper chamber peptide 50): 56; Responding cells on the lower surface of the filter (osteosarcoma cells; Table 1, substance in lower chamber, upper chamber peptide 51): 32; Responding cells on the lower surface of the filter (osteosarcoma cells; Table 1, substance in lower chamber, upper chamber peptide 52): 78; Responding cells on the lower surface of the filter (osteosarcoma cells; Table 1, substance in lower chamber, upper chamber peptide 53): 62; Responding cells on the lower surface of the filter (osteosarcoma cells; Table 1, substance in upper chamber, lower chamber PBS): 13
LVLAPK (OTHER INFORMATION: Osteopontin Derived Peptide) [mutant of peptide 51 with aspartic acid replaced] | – | – | – | – | – | – | – | – | – | – | – | – | – | – | – | failed to induce chemotaxis | –
B1 | – | – | – | – | – | – | – | – | – | – | 74 | 31 | 76 | 117 | 156 | chemotax toward | –
